{"source": "ChEMBL document CHEMBL1138260", "about": "“The first biologically active synthetic analogues of FK228, the depsipeptide histone deacetylase inhibitor” (J Med Chem, 2007)", "key": {"MCF7 [1]": {"tested_on": "MCF7", "test": "Growth inhibition of MCF7 cells", "format": "functional, cell-based", "details": "Homo sapiens"}, "Histone deacetylase": {"molecular_target": "Histone deacetylase", "test": "Inhibition of HDAC in HeLa nuclear extract in presence of DTT", "format": "protein assay, Homo sapiens"}, "Histone deacetylase 1": {"molecular_target": "Histone deacetylase 1 (Homo sapiens, UniProt Q13547)", "sequence (Q13547 whole entry)": "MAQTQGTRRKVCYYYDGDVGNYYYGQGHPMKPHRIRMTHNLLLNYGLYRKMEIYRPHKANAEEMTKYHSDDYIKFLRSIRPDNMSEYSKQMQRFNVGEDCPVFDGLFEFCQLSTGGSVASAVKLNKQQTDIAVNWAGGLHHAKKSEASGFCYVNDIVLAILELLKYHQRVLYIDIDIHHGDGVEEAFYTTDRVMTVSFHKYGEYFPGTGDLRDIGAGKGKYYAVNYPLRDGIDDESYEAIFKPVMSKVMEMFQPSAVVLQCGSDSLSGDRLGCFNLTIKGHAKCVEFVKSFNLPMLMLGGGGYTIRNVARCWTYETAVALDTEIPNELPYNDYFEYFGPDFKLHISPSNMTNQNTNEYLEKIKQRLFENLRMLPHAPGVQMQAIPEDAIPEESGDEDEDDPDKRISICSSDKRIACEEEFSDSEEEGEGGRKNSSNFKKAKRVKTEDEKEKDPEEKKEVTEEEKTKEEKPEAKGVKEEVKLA", "description": "Inhibition of HDAC1 in presence of DTT"}, "[2]": {"molecular_target": "T1, Protein deacetylase HDAC6 (Homo sapiens, UniProt Q9UBN7)", "T1 sequence (Q9UBN7 whole entry)": "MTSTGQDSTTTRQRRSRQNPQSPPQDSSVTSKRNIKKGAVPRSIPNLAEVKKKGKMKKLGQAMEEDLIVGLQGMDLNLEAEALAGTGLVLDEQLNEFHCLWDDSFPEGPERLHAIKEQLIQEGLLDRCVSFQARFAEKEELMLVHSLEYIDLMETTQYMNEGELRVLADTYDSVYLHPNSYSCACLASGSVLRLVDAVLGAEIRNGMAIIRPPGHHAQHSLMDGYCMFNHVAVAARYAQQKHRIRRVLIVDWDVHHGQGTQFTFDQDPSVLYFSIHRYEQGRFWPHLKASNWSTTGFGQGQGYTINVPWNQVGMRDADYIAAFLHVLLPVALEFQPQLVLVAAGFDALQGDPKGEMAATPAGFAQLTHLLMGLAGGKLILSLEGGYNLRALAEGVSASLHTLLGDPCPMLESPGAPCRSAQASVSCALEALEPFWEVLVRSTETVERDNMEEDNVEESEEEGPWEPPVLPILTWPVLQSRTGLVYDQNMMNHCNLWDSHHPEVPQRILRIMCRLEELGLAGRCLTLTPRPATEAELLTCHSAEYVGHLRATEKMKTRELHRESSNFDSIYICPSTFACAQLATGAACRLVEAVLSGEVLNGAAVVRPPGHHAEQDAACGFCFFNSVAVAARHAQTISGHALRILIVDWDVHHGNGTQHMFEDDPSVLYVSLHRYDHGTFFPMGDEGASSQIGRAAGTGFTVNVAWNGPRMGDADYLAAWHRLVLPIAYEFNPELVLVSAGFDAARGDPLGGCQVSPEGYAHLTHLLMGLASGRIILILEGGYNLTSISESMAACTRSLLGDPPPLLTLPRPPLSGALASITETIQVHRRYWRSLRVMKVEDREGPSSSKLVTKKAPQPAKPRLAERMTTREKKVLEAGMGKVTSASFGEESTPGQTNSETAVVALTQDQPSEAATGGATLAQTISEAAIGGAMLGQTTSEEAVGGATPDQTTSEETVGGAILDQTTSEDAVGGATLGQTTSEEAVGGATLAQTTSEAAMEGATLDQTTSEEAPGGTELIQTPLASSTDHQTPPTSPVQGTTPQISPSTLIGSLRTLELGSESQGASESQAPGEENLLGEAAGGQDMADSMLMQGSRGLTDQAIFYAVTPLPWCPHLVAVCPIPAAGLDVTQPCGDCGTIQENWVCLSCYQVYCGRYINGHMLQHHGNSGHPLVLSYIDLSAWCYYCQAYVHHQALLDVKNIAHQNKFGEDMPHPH", "description": "Inhibition of HDAC6 in presence of DTT"}, "MCF7 [3]": {"tested_on": "MCF7", "test": "Induction of p21cip1/waf1 promoter activity in MCF7 cells after 24 hrs", "format": "functional, cell-based", "details": "Homo sapiens"}}, "note": "The source made the active and inactive calls. The calls are words filed in the database; no cut-off is given here.", "data": [{"smiles": "CC(=O)SCC/C=C/[C@@H]1CC(=O)N[C@H](C)C(=O)N[C@H](C)C(=O)N[C@H](C(C)C)C(=O)NCC(=O)O1", "values": [{"measurement": "IC50", "setting": "MCF7 [1]", "value": 0.055, "unit": "µM"}, {"measurement": "IC50", "setting": "Histone deacetylase", "value": 0.242, "unit": "µM"}, {"measurement": "IC50", "setting": "Histone deacetylase 1", "value": "> 0.1", "unit": "µM"}, {"measurement": "IC50", "setting": "[2]", "value": "> 10", "unit": "µM"}]}, {"smiles": "CC(C)[C@H]1NC(=O)C[C@H]2/C=C/CCSSC[C@@H](NC1=O)C(=O)N[C@H](C(C)C)C(=O)NCC(=O)O2", "values": [{"measurement": "IC50", "setting": "MCF7 [1]", "value": 0.0051, "unit": "µM"}, {"measurement": "IC50", "setting": "Histone deacetylase", "value": 0.0072, "unit": "µM"}, {"measurement": "IC50", "setting": "Histone deacetylase 1", "value": 0.0016, "unit": "µM"}, {"measurement": "IC50", "setting": "[2]", "value": 0.897, "unit": "µM"}]}, {"smiles": "CC(C)[C@H]1NC(=O)[C@@H](C)NC(=O)[C@@H](C)NC(=O)C[C@@H](/C=C/CCS)OC(=O)CNC1=O", "values": [{"measurement": "IC50", "setting": "MCF7 [1]", "value": "> 1", "unit": "µM"}, {"measurement": "IC50", "setting": "Histone deacetylase", "value": 0.007, "unit": "µM"}, {"measurement": "IC50", "setting": "Histone deacetylase 1", "value": 0.0175, "unit": "µM"}, {"measurement": "IC50", "setting": "[2]", "value": 4.92, "unit": "µM"}]}, {"smiles": "CC(C)[C@H]1NC(=O)[C@H]2CSSCC/C=C/[C@H](CC(=O)N[C@H](C)C(=O)N2)OC(=O)CNC1=O", "values": [{"measurement": "IC50", "setting": "MCF7 [1]", "value": 0.037, "unit": "µM"}, {"measurement": "IC50", "setting": "Histone deacetylase", "value": 0.015, "unit": "µM"}, {"measurement": "Activity", "setting": "MCF7 [3]", "value": "Active"}, {"measurement": "IC50", "setting": "Histone deacetylase 1", "value": 0.0016, "unit": "µM"}, {"measurement": "IC50", "setting": "[2]", "value": 0.881, "unit": "µM"}]}, {"smiles": "COC(=O)CNC(=O)[C@H](NC(=O)[C@H]1CSSCC/C=C/[C@@H](O)CC(=O)N[C@H](C)C(=O)N1)C(C)C", "values": [{"measurement": "IC50", "setting": "MCF7 [1]", "value": "> 1", "unit": "µM"}, {"measurement": "IC50", "setting": "Histone deacetylase", "value": "> 3.2", "unit": "µM"}]}]}
